Experimental data published in patent publication US9738932B2, “Biomarkers for cardiovascular side-effects induced by cox-2 inhibitory compounds” (FIRALIS SAS, priority 2005, dated 2017).

Tested on: mRNA expression in cardiovascular tissues
Assay: Affymetrix GeneChip mRNA expression profiling of monkey tissues (iliac vein, pulmonary vein, aorta, carotid artery, heart) after two-week oral-gavage treatment
Settings: iliac vein
[1] = group average (Vioxx without A60055)
[2] = group avg, Vioxx without A60055

SMILES: Cc1ccc(Nc2c(F)cccc2Cl)c(CC(=O)O)c1 [COX189, Lumiracoxib]
- ACE (209749_s_at) mRNA expression, Avg fold changes vs control [1]: 0.8 fold
- B2M (216231_s_at) mRNA expression, Avg fold changes vs control [1]: 1.1 fold
- BCL6 (215990_s_at) mRNA expression, Avg fold changes vs control [1]: 1.4 fold
- BTN2A2 (205298_s_at) mRNA expression, Avg fold changes vs control [1]: 1.3 fold
- CCR1 (205098_at) mRNA expression, Avg fold changes vs control [1]: 0.8 fold
- CD2 (205831_at) mRNA expression, Avg fold changes vs control [1]: 1.1 fold
- CD48 (204118_at) mRNA expression, Avg fold changes vs control [1]: 1.0 fold
- CD53 (203416_at) mRNA expression, Avg fold changes vs control [1]: 1.0 fold
- CDC2 (210559_s_at) mRNA expression, Avg fold changes vs control [1]: 1.0 fold
- CYBB (203922_s_at) mRNA expression, Avg fold changes vs control [1]: 0.9 fold
- EMP3 (203729_at) mRNA expression, Avg fold changes vs control [1]: 0.8 fold
- FCER1G (204232_at) mRNA expression, Avg fold changes vs control [1]: 1.0 fold
- FCGR2A (203561_at) mRNA expression, Avg fold changes vs control [1]: 0.8 fold
- FCGRT (218831_s_at) mRNA expression, Avg fold changes vs control [1]: 1.0 fold
- FKBP11 (219117_s_at) mRNA expression, Avg fold changes vs control [1]: 0.7 fold
- FKBP11 (219118_at) mRNA expression, Avg fold changes vs control [1]: 0.8 fold
- GP6 (220336_s_at) mRNA expression, Avg fold changes vs control [1]: 1.2 fold
- HCLS1 (202957_at) mRNA expression, Avg fold changes vs control [1]: 1.0 fold
- HEM1 (209734_at) mRNA expression, Avg fold changes vs control [1]: 1.0 fold
- HLA-A (210514_x_at) mRNA expression, Avg fold changes vs control [1]: 1.2 fold
- HLA-A (213932_x_at) mRNA expression, Avg fold changes vs control [1]: 1.2 fold
- HLA-C (211799_x_at) mRNA expression, Avg fold changes vs control [1]: 1.5 fold
- HLA-E (200904_at) mRNA expression, Avg fold changes vs control [1]: 1.0 fold
- HLA-F (221978_at) mRNA expression, Avg fold changes vs control [1]: 1.4 fold
- ICAM1 (202637_s_at) mRNA expression, Avg fold changes vs control [1]: 1.0 fold
- IL13RA1 (210904_s_at) mRNA expression, Avg fold changes vs control [1]: 1.1 fold
- PIK3CD (203879_at) mRNA expression, Avg fold changes vs control [1]: 1.1 fold
- PRKCBP1 (209048_s_at) mRNA expression, Avg fold changes vs control [1]: 1.1 fold
- PRKCBP1 (209049_s_at) mRNA expression, Avg fold changes vs control [1]: 0.9 fold
- PTPN7 (204852_s_at) mRNA expression, Avg fold changes vs control [1]: 1.0 fold
- SIGIRR (52940_at) mRNA expression, Avg fold changes vs control [1]: 0.9 fold
- STAT1 (200887_s_at) mRNA expression, Avg fold changes vs control [1]: 1.3 fold
- STAT1 (AFFX-HUMISGF3A/M97935_3_at) mRNA expression, Avg fold changes vs control [1]: 1.3 fold
- STAT3 (208992_s_at) mRNA expression, Avg fold changes vs control [1]: 1.0 fold
- TCIRG1 (204158_s_at) mRNA expression, Avg fold changes vs control [1]: 1.0 fold
- THY1 (213869_x_at) mRNA expression, Avg fold changes vs control [1]: 0.9 fold
- TMPO (209753_s_at) mRNA expression, Avg fold changes vs control [1]: 0.9 fold
- TMSB10 (217733_s_at) mRNA expression, Avg fold changes vs control [1]: 1.1 fold
- TNFRSF21 (218856_at) mRNA expression, Avg fold changes vs control [1]: 1.1 fold
- TRB@ (210915_x_at) mRNA expression, Avg fold changes vs control [1]: 1.3 fold
- TRB@ (213193_x_at) mRNA expression, Avg fold changes vs control [1]: 1.2 fold
- 209813_x_at avg fold change vs control [2]: 1.0 fold
- AIF1 (209901_x_at) avg fold change vs control [2]: 0.7 fold
- AIF1 (213095_x_at) avg fold change vs control [2]: 0.5 fold
- B2M (201891_s_at) avg fold change vs control [2]: 1.0 fold
- BCL3 (204908_s_at) avg fold change vs control [2]: 1.0 fold
- BTN3A1 (207485_x_at) avg fold change vs control [2]: 2.1 fold
- BTN3A3 (38241_at) avg fold change vs control [2]: 1.0 fold
- BTN3A3 (204820_s_at) avg fold change vs control [2]: 1.1 fold
- BTN3A3 (204821_at) avg fold change vs control [2]: 1.5 fold
- C1QA (218232_at) avg fold change vs control [2]: 1.0 fold
- C1QB (202953_at) avg fold change vs control [2]: 1.0 fold
- C1R (212067_s_at) avg fold change vs control [2]: 1.0 fold
- C1S (208747_s_at) avg fold change vs control [2]: 1.0 fold
- C2 (203052_at) avg fold change vs control [2]: 1.1 fold
- C4A (208451_s_at) avg fold change vs control [2]: 0.9 fold
- CASP1 (209970_x_at) avg fold change vs control [2]: 1.1 fold
- CASP1 (211367_s_at) avg fold change vs control [2]: 1.2 fold
- CCL2 (216598_s_at) avg fold change vs control [2]: 1.6 fold
- CCL3 (205114_s_at) avg fold change vs control [2]: 0.9 fold
- CCL5 (1405_i_at) avg fold change vs control [2]: 0.9 fold
- CCL8 (214038_at) avg fold change vs control [2]: 1.7 fold
- CCL18 (209924_at) avg fold change vs control [2]: 2.3 fold
- CCL19 (210072_at) avg fold change vs control [2]: 1.4 fold
- CCNB2 (202705_at) avg fold change vs control [2]: 1.4 fold
- CD3D (213539_at) avg fold change vs control [2]: 1.7 fold
- CD8A (205758_at) avg fold change vs control [2]: 1.2 fold
- CD14 (201743_at) avg fold change vs control [2]: 0.7 fold
- CD74 (209619_at) avg fold change vs control [2]: 1.0 fold
- CLU (208791_at) avg fold change vs control [2]: 1.0 fold
- CMAH (210571_s_at) avg fold change vs control [2]: 1.1 fold
- CTSC (201487_at) avg fold change vs control [2]: 1.1 fold
- CTSK (202450_s_at) avg fold change vs control [2]: 1.2 fold
- CTSS (202902_s_at) avg fold change vs control [2]: 1.1 fold
- CX3CR1 (205898_at) avg fold change vs control [2]: 1.2 fold
- CXCL9 (203915_at) avg fold change vs control [2]: 1.7 fold
- CXCL10 (204533_at) avg fold change vs control [2]: 1.4 fold
- CXCL11 (210163_at) avg fold change vs control [2]: 2.6 fold
- CXCL11 (211122_s_at) avg fold change vs control [2]: 2.3 fold
- CXCL12 (209687_at) avg fold change vs control [2]: 0.8 fold
- CYBA (203028_s_at) avg fold change vs control [2]: 1.2 fold
- CYBB (203923_s_at) avg fold change vs control [2]: 1.0 fold
- CYP1B1 (202436_s_at) avg fold change vs control [2]: 1.3 fold
- CYP3A5 (214234_s_at) avg fold change vs control [2]: 1.3 fold
- CYP11B1 (214630_at) avg fold change vs control [2]: 1.0 fold
- DUSP6 (208893_s_at) avg fold change vs control [2]: 0.9 fold
- ECGF1 (204858_s_at) avg fold change vs control [2]: 1.7 fold
- ECM1 (209365_s_at) avg fold change vs control [2]: 1.0 fold
- F2RL1 (206429_at) avg fold change vs control [2]: 1.8 fold
- F13A1 (203305_at) avg fold change vs control [2]: 1.1 fold
- FCGR1A (214511_x_at) avg fold change vs control [2]: 1.0 fold
- FCGR3A (204006_s_at) avg fold change vs control [2]: 1.0 fold
- G1P2 (205483_s_at) avg fold change vs control [2]: 1.5 fold
- GZMB (210164_at) avg fold change vs control [2]: 0.8 fold
- HCA127 (220040_x_at) avg fold change vs control [2]: 0.9 fold
- HCK (208018_s_at) avg fold change vs control [2]: 1.1 fold
- HFE (210864_x_at) avg fold change vs control [2]: 1.3 fold
